According to US9428478B2, “Piperazine derivatives, compositions, and uses related thereto” (Emory University, priority 2011, dated 2016):
Converted amounts (≈) assume the structure as drawn.

How the values were obtained:
Nox2 [1] = molecular target: T1, Nox2 (Homo sapiens (Human), UniProt P04839); test: Nox2 activity assay for primary screening (cell free, human neutrophil plasma membranes, LO12 luminescence); format: biochemical
Experimental: Nox2 activity assay for primary screening: Plasma membranes were prepared from human neutrophils, which express large amounts of Nox2, stored at −80 C until use. See Curnutte et al., J. Biol. Chem. 1987, 262, 6450-6452, hereby incorporated by reference. Membranes are mixed with recombinant, purified cytosolic regulatory proteins (p67Np47N chimera, and a constitutively active mutant of Rac, Rac1(Q61)) and FAD, along with varying concentrations of compound, and LO12, which emits light when it reacts with ROS. The reaction is initiated by addition of NADPH and SDS (an artificial activator of Nox2).
Target sequence in this assay (P04839 2-570): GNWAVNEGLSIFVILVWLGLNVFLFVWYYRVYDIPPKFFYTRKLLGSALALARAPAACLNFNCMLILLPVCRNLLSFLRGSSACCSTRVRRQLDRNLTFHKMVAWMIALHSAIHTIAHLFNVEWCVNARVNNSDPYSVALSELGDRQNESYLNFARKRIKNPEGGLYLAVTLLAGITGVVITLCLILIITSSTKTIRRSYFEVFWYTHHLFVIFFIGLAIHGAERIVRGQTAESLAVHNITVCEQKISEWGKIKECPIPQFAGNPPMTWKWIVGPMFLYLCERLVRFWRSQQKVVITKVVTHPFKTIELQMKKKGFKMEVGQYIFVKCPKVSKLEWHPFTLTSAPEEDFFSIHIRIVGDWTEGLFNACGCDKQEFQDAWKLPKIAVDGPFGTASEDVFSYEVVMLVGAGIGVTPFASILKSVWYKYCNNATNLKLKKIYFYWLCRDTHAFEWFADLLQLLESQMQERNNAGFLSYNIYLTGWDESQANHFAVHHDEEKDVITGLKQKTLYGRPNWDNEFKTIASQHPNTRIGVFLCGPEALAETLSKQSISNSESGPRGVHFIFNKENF

xanthine oxidase = xanthine oxidase (Homo sapiens (Human), UniProt P47989); test: Assay control: xanthine oxidase (XO) replaces Nox2 as the source of ROS, LO12 luminescence; format: biochemical; details: Table 2, xanthine oxidase control
xanthine oxidase, sequence (P47989 whole entry, species assumed): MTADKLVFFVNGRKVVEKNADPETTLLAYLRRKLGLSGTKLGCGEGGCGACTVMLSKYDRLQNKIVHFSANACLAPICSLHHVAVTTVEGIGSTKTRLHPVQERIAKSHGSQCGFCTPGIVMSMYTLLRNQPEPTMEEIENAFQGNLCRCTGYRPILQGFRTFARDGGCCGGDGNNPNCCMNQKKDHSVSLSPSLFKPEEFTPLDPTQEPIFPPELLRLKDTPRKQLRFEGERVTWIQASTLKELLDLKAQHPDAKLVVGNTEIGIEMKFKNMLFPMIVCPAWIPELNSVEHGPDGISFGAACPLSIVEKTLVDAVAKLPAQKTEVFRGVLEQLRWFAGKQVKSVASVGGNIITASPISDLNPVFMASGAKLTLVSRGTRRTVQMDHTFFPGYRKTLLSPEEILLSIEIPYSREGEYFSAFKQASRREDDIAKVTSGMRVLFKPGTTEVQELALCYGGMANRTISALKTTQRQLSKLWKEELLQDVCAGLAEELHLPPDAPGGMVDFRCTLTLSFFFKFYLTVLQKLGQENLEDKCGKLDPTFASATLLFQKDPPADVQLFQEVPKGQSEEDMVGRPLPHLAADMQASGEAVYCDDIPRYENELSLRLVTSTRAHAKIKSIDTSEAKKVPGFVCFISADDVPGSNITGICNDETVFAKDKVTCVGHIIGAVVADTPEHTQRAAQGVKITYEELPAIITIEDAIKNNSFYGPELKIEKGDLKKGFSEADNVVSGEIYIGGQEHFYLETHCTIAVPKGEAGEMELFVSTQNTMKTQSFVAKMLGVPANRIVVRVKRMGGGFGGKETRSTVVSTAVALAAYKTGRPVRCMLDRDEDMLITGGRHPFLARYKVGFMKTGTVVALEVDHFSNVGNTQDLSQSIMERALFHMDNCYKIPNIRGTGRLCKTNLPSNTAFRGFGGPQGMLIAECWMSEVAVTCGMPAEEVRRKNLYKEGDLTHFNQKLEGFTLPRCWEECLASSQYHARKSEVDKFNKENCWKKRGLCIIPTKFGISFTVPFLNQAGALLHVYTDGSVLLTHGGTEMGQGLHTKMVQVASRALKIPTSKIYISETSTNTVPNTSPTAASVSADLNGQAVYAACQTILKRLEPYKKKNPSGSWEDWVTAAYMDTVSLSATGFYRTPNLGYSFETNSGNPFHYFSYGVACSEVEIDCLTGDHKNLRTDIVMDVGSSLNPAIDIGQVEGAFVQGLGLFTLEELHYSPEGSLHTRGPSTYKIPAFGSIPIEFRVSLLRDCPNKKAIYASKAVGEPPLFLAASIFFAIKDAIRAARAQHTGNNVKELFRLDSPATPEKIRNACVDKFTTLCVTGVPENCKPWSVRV
Experimental: Assay controls. To rule out interference with either Nox2 or Nox4 luminescence assays, two approaches are used. In one, xanthine oxidase replaces the Nox2 enzymatic system as the source of ROS in the Nox2/LO12 assay. Xanthine is added to initiate the reaction and LO12 luminescence is recorded. In the other, exogenous H2O2 is supplied in place of the Nox4 expressing H2O2-generating cells and luminescence is recorded.

Solubility = format: physicochemical
Nox2 [2] = molecular target: T1, Nox2; test: Nox2 assay in human neutrophils (PMN), LO12 luminescence; format: cell-based; details: Table 3, human neutrophils; read-out: Nox2 (PMN)
Experimental: Nox2 assay in human neutrophils: Human neutrophils were obtained from healthy volunteers (REF). LO12 luminescence was quantified as above. Nox4 assay using stably transfected HEK cell: HEK cells stably transfected with human Nox4 were incubated with varying concentrations of compound along with LO12.
Target sequence in this assay (P04839 whole entry, looked up): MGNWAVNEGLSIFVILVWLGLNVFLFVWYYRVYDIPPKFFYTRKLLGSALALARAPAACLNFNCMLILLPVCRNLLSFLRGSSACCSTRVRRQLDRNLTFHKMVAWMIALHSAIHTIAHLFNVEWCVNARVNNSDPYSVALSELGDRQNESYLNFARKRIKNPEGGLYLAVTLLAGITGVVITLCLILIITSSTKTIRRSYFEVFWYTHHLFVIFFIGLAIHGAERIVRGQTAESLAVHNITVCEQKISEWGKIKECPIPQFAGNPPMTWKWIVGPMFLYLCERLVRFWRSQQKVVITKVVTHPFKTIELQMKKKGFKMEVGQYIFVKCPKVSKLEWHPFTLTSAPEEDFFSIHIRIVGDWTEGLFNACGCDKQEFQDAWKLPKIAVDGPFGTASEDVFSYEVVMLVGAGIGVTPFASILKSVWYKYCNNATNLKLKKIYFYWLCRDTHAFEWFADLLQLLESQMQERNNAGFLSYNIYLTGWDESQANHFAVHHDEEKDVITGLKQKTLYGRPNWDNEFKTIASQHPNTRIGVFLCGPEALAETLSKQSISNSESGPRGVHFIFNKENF
Target sequence in this assay (P13498 whole entry partner, looked up): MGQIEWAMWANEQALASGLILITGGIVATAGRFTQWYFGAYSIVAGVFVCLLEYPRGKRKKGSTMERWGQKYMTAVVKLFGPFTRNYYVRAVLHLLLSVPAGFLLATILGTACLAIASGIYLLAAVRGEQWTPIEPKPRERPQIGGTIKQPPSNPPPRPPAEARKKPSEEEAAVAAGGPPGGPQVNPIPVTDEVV

Nox1 = Nox1 (Homo sapiens (Human), UniProt Q9Y5S8); test: Nox1 inhibition; format: biochemical; details: Table 3
Nox1, sequence (Q9Y5S8 whole entry, species assumed): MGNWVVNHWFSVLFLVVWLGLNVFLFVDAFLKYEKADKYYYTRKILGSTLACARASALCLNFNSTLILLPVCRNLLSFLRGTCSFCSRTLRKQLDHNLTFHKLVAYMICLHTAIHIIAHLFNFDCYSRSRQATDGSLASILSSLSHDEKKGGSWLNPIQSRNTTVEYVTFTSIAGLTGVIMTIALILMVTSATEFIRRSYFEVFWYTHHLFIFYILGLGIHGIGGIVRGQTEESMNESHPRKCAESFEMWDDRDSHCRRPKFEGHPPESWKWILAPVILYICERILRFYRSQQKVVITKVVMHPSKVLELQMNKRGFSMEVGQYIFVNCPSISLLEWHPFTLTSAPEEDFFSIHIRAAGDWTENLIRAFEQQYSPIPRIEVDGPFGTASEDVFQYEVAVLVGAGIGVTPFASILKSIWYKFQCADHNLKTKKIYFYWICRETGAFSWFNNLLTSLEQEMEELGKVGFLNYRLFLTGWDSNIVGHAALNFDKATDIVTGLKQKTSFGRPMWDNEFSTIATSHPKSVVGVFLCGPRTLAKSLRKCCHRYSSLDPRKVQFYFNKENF
Nox1, sequence (P13498 2-195 partner, species assumed): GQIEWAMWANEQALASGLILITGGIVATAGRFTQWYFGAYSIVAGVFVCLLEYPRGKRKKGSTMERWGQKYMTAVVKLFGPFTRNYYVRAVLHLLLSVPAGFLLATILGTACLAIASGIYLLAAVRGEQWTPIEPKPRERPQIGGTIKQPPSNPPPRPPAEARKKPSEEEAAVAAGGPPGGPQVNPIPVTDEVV

Nox5 = Nox5 (Homo sapiens (Human), UniProt Q96PH1); test: Nox5 inhibition; format: biochemical; details: Table 3
Nox5, sequence (Q96PH1 whole entry, species assumed): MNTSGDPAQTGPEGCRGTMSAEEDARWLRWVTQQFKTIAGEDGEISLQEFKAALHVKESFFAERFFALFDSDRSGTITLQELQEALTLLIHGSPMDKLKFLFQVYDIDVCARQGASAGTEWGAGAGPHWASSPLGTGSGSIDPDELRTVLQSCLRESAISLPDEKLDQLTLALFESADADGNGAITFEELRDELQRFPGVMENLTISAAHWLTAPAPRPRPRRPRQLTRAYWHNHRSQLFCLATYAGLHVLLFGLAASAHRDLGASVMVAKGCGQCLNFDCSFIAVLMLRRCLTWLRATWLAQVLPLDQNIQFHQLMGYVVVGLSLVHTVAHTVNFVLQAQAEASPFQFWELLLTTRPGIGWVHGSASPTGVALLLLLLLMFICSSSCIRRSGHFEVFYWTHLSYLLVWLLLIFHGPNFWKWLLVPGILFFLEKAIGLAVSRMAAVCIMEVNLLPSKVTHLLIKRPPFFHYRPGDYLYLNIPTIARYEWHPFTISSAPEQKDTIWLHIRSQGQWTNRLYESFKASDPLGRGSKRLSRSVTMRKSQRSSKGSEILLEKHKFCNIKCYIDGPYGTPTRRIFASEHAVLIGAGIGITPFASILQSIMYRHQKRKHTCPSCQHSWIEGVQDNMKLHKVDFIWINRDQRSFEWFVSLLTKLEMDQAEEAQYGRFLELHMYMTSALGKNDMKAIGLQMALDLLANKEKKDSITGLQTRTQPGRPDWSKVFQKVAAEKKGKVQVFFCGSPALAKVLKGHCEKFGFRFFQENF

[3] = Stability in liver S9-fractions, human; format: in vitro ADME; details: read-out: Stability in liver S9-fractions (t ½) Human (converted)
[4] = Stability in liver S9-fractions, mouse; format: in vitro ADME; details: read-out: Stability in liver S9-fractions (t ½) Mouse (converted)
[5] = Stability in liver S9-fractions, dog; format: in vitro ADME; details: read-out: Stability in liver S9-fractions (t ½) Dog (converted)
[6] = Table 3, read-out: Nox2 (Cell Free)

## CCOc1ccc(N2CCN(C(=O)c3nc4cc(F)ccc4[nH]3)CC2)cc1 [TG6-242]
Nox2 [1]; Table 2, read-out: IC50 Nox2
  IC50: 800 nM

## O=C(c1nc2cc(F)ccc2[nH]1)N1CCN(c2ccc(OC(F)(F)F)cc2)CC1 [TG6-206]
Nox2 [1]; Table 2
  IC50 Nox2: Not active

## COc1ccc(N2CCN(C(=O)c3cc4cc(S(C)(=O)=O)ccc4[nH]3)CC2)cc1 [TG6-218]
Nox2 [1]
  inhibition at 6 µM: 40%

## COc1ccc(N2CCN(C(=O)c3cc4cc(C(=O)O)ccc4[nH]3)CC2)cc1 [TG6-236]
Xanthine oxidase
  IC50: > 20000 nM
Nox2 [1]; Table 2, read-out: IC50 Nox2
  IC50: 500 nM

## CCN(CC)CCNCc1c(C(=O)N2CCN(c3ccc(OC)cc3)CC2)[nH]c2ccc(F)cc12 [TG6-298, (3-(((2-(diethylamino)ethyl)amino)methyl)-5-fluoro-1H-indol-2-yl)(4-(4-methoxyphenyl)piperazin-1-yl)methanone]
Solubility
  solubility: 150 µM (≈ 72.2 µg/mL)
Nox2 [2]
  IC50: 200 nM
Nox2 [1]; [6]
  IC50: 300 nM
Nox1
  IC50: 900 nM

## CCN1CCN(Cc2c(C(=O)N3CCN(c4ccc(OC)cc4)CC3)[nH]c3ccc(F)cc23)CC1 [TG7-33, (3-((4-ethylpiperazin-1-yl)methyl)-5-fluoro-1H-indol-2-yl)(4-(4-methoxyphenyl)piperazin-1-yl)methanone]
Nox5
  IC50: 800 nM
Solubility
  solubility: 250 µM (≈ 120 µg/mL)
Nox2 [2]
  IC50: 700 nM
Nox2 [1]; [6]
  IC50: 800 nM
Nox1
  IC50: 400 nM

## COc1ccc(N2CCN(C(=O)c3cc4cc(C(N)=O)ccc4[nH]3)CC2)cc1 [TG6-227]
[3]
  half-life: 2 h
Solubility
  solubility: 190 µM (≈ 71.9 µg/mL)
Nox2 [2]
  IC50: 100 nM
[4]
  half-life: 6 h
Xanthine oxidase
  IC50: > 20000 nM
Nox2 [1]; Table 2, read-out: IC50 Nox2
  IC50: 700 nM
Nox2 [1]; [6]
  IC50: 600 nM
Nox1
  IC50: 300 nM
[5]
  half-life: 4.5 h

## COc1ccc(N2CCN(C(=O)c3[nH]c4ccc(OC)cc4c3NC(C)=O)CC2)cc1 [TG6-208]
Nox2 [1]
  inhibition at 2 µM: 60%

## COc1ccc(N2CCN(C(=O)c3cnc4ccc(F)cc4c3O)CC2)cc1 [TG6-191]
Nox2 [1]; Table 2, read-out: IC50 Nox2
  IC50: 1500 nM

## COc1ccc(N2CCN(C(=O)c3nc4cc(OC)ccc4[nH]3)CC2)cc1 [TG6-228]
Xanthine oxidase
  IC50: > 20000 nM
Nox2 [1]; Table 2, read-out: IC50 Nox2
  IC50: 1000 nM

## CCN(CC)Cc1c(C(=O)N2CCN(c3ccc(OC)cc3)CC2)[nH]c2ccc(F)cc12.Cl [TG7-34, (3-((diethylamino)methyl)-5-fluoro-1H-indol-2-yl)(4-(4-methoxyphenyl)piperazin-1-yl)methanone]
Nox5
  IC50: 600 nM
Solubility
  solubility: 270 µM
Nox2 [2]
  IC50: 500 nM
Nox2 [1]; [6]
  IC50: 700 nM
Nox1
  IC50: 600 nM

## COc1ccc(N2CCN(C(=O)c3[nH]c4ccc(F)cc4c3C)CC2)cc1 [TG6-200]
Nox2 [1]; Table 2, read-out: IC50 Nox2
  IC50: 700 nM

## COc1ccc(N2CCN(C(=O)c3cc4cc(C(C)=O)ccc4[nH]3)CC2)cc1F [TG6-252]
Nox2 [1]; Table 2, read-out: IC50 Nox2
  IC50: 3000 nM

## CCOc1ccc(N2CCN(C(=O)c3cc4cc(C(C)=O)ccc4[nH]3)CC2)cc1 [TG6-238]
Xanthine oxidase
  IC50: ≥ 20000 nM
Nox2 [1]; Table 2, read-out: IC50 Nox2
  IC50: 800 nM

## CNC(=O)c1ccc2[nH]c(C(=O)N3CCN(c4ccc(OC)cc4)CC3)cc2c1 [TG6-223]
Xanthine oxidase
  IC50: > 20000 nM
Nox2 [1]; Table 2, read-out: IC50 Nox2
  IC50: 500 nM

## CNC(=O)c1ccc2[nH]c(C(=O)N3CCN(c4ccc(OC)c(F)c4)CC3)cc2c1 [TG6-254-2]
Nox2 [1]; Table 2, read-out: IC50 Nox2
  IC50: 10000 nM

## COc1ccc(N2CCN(C(=O)c3[nH]c4ccc(F)cc4c3CNC3CCN(C)CC3)CC2)cc1 [TG7-32, (5-fluoro-3-(((1-methylpiperidin-4-yl)amino)methyl)-1H-indol-2-yl)(4-(4-methoxyphenyl)piperazin-1-yl)methanone]
Nox5
  IC50: 600 nM
Solubility
  solubility: 250 µM (≈ 120 µg/mL)
Nox2 [2]
  IC50: 200 nM
Nox2 [1]; [6]
  IC50: 700 nM
Nox1
  IC50: 500 nM

## O=C(c1cc2cc(O)ccc2[nH]1)N1CCN(c2ccc(OC(F)(F)F)cc2)CC1 [TG6-205-2]
Xanthine oxidase
  IC50: 200 nM
Nox2 [1]; Table 2, read-out: IC50 Nox2
  IC50: 1500 nM

## COc1ccc(N2CCN(C(=O)c3cc4cc(OC)ccc4[nH]3)CC2)cc1 [TG6-179-2]
Nox2 [1]; Table 2, read-out: IC50 Nox2
  IC50: 500 nM
